Experimental data published in paper PMC12501849, “Design, synthesis and evaluation of arylpurine-based sinefungin mimetics as zika virus methyltransferase inhibitors” (RSC Advances, 2025).
“Also recorded” adds a separate entry of the source.

How the values were obtained:
[1] = molecular target: T1, ZIKV MTase (Zika virus, UniProt A0A024B7W1); test: Filter binding assay (FBA), ZIKV 2′-O-MTase activity; type: biochemical; conditions: for inhibition at 50 µM: 2′-O-MTase activity, compound at 50 μM, read-out: Percentage of inhibition of ZIKV MTase
T1 construct: the ZIKV NS5 MTase (aa 4-278) domain were synthesized (Genscript); His6 (N); made in house; host or cells: Escherichia coli T7 Express Iq
T1 sequence (A0A024B7W1 2524-2798): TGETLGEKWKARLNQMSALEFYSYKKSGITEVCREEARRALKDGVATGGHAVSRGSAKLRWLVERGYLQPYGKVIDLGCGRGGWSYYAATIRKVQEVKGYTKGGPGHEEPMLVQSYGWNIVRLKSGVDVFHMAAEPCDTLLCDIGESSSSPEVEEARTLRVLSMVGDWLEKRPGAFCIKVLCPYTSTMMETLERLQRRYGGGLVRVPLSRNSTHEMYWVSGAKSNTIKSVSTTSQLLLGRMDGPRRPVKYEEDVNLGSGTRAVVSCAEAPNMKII
Description: (§1) The synthesized arylpurines were evaluated for their inhibitory activity against the 2′-O-MTase activity of ZIKV and DENV3 MTases by quantification of [^3H]-methyl transfer from the [^3H]-SAM on short synthetic capped RNA (GpppAC4), by using a filter binding assay (FBA).[13,33] The universal methyltransferase inhibitor sinefungin was included as a positive control (Table 1), whose IC50 value against ZIKV MTase has already been reported using a similar assay.[13] We assessed MTase inhibition by testing the synthesized compounds at a concentration of 50 μM.
(§2) Proteins were produced and purified as previously described.[13] Briefly, the coding sequence of ZIKV NS5 (aa 4-903) and the ZIKV NS5 MTase (aa 4-278) domain were synthesized (Genscript) based on the sequence of the ZIKV strain H/PF/2013 (GenBank accession no. KJ776791.2) and then cloned into a pQE30 (Qiagen) plasmid with an N-terminal His6 tag. The MTase domains (aa 4-278 and aa 1-264) were produced in Escherichia coli T7 Express Iq (New England BioLabs). Cells were grown in Terrific Broth at 37 °C until the optical density at 600 nm (OD600) reached 0.6. Protein expression was then induced by 0.5 mM IPTG (isopropyl-β-D-thiogalactopyranoside) at 17 °C overnight. Bacteria were harvested by centrifugation. The bacterial pellets from a 2-liter bacterial culture were resuspended in 100 ml lysis buffer (50 mM Tris–HCl [pH 8], 300 mM NaCl, 5% glycerol, 0.1% Triton, 10 μg per ml DNase I, 2 tablets of EDTA-free antiprotease cocktail [Roche], 0.25 mg per ml lysozyme). After 30 min of incubation at 4 °C, cells were sonicated and clarified by centrifugation prior to immobilized metal affinity chromatography (IMAC) purification on a 5-mL His prep column (GE Healthcare), with elution in 50 mM Tris–HCl, 300 mM NaCl, and 250 mM imidazole (pH 8.0). The eluted protein was then loaded on a 16/60 Superdex 200 (GE Healthcare) equilibrated in a mixture of 10 mM HEPES, 500 mM NaCl, glycerol 5%, and 1 mM dithiothreitol (DTT [pH 7.5]).
(§3) The FBA MTase assay was carried out in a reaction mixture [40 mM Tris–HCl (pH 8.0), 1 mM DTT, 1.9 μM SAM, and 0.1 μM ^3H-SAM (PerkinElmer)] in the presence of 0.7 μM GpppAC4 synthetic RNA and the MTase (500 nM), according to the method previously described.[39] Briefly, the MTase was first mixed with the compound suspended in DMSO (5% final DMSO) before the addition of RNA substrate and SAM and then incubated at 30 °C. Reactions mixtures were stopped after 30 min by their 10-fold dilution in ice-cold water. Samples were transferred to diethylaminoethyl (DEAE) filtermat (PerkinElmer) using a Filtermat Harvester (Packard Instruments). The RNA-retaining mats were washed twice with 10 mM ammonium formate pH 8.0, twice with water and once with ethanol. They were soaked with scintillation fluid (PerkinElmer), and ^3H-methyl transfer to the RNA substrates was determined using a Wallac MicroBeta TriLux liquid scintillation counter (PerkinElmer).

[2] = molecular target: T2, DENV3 MTase (Dengue virus type 3, UniProt P27915); test: Filter binding assay (FBA), DENV3 2′-O-MTase activity; type: biochemical; conditions: for inhibition at 50 µM: 2′-O-MTase activity, compound at 50 μM, read-out: Percentage of inhibition of DENV3 MTase
T2 construct: the MTase activity is located at the N-terminal of the viral NS5 protein; made in house
T2 sequence (P27915 2492-2753): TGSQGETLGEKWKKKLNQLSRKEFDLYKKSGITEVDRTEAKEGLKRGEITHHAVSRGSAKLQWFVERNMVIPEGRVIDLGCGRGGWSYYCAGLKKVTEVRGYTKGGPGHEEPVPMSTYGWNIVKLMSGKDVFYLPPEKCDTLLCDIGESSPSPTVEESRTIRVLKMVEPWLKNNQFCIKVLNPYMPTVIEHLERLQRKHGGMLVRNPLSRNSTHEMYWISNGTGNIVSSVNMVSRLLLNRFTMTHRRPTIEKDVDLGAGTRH
Description: as §1, §2, §3

[3] = tested on: ZIKV; test: Antiviral assay against ZIKV in VeroE6 cells (CPE, MTS readout); type: cell-based, zika virus; conditions: for EC50: concentration that protects 50% of the cells from virus-induced cytopathic effect
Description: (§4) These compounds were next evaluated for their antiviral effect on ZIKV replication in Vero E6 and SH-SY5Y cells. 7-Deaza-2′-C-methyladenosine (7DMA), a viral polymerase inhibitor,[35] was included as a positive control.
(§5) Assessment of the antiviral activity against ZIKV in VeroE6 cells (African green monkey kidney cells; Vero 76, clone E6; ATCC: Cat# CRL-1586) was done as previously described.[35] The antiviral assays in the neuroblastoma SH-SY5Y cells (CRL-2266; ATCC) were conducted as follows: SH-SY5Y cells were seeded in assay medium (MEM supplemented with 2% fetal bovine serum, 2 mM L-glutamine and 0.075% sodium bicarbonate; all from Thermo Fisher Scientific) at a density of 15 000 cells/well in 96-well plates. Cells were incubated overnight at 37 °C and 5% CO2. The next day, a serial dilution of the compounds was added to the cells, followed by inoculation of the cells with ZIKV MR766 (MOI = 0.01). Following a 7-day incubation at 37 °C and 5% CO2, ZIKV-induced cytopathic effect was determined by means of the MTS readout method, analogous to the assay with the VeroE6 cells.[35] The 50% effective concentration (the compound concentration that is required to inhibit virus-induced CPE by 50%; EC50) and the 50% cytotoxic concentration (i.e. the compound concentration that is required to inhibit the cell growth by 50%; CC50) was determined using logarithmic interpolation.

[4] = Cytotoxicity in non-infected VeroE6 cells; type: cell-based, African green monkey; conditions: African green monkey, non-infected, 50% cytotoxic concentration
Description: as §5

[5] = tested on: VeroE6 cells; test: Cytotoxicity in non-infected VeroE6 cells; type: cell-based, African green monkey
Description: as §5

[6] = tested on: ZIKV MR766; test: Antiviral assay against ZIKV in SH-SY5Y cells (CPE, MTS readout); type: cell-based, zika virus
Description: as §4
Besides the standard assays in VeroE6 cells, the compounds were also tested in SH-SY5Y cells. […] Thus, they function as a relevant neuronal cell-based model of ZIKV infection.[38]
as §5

[7] = Cytotoxicity in non-infected SH-SY5Y cells; type: cell-based; conditions: human, SH-SY5Y neuroblastoma cells, 50% cytotoxic concentration
Description: as §5

[8] = molecular target: T1, ZIKV MTase; set-up: method as in PMID 28031359; conditions: cited from earlier work
[9] = molecular target: T2, DENV3 MTase; set-up: method as in PMID 28031359; conditions: cited from earlier work
[10] = set-up: method as in PMID 30170321; conditions: cited from earlier work

SMILES: Cc1ncnc2c1ccn2-c1cccc(N(CC[C@H](N)C(N)=O)CCC(C)(C)C)c1 [Compound 18, (S)-2-Amino-4-((3,3-dimethylbutyl)(3-(4-methyl-7H-pyrrolo[2,3-d]pyrimidin-7-yl)phenyl)amino) butanamide]
- inhibition at 50 µM [1]: 10.8%
- Effect on 2′-O-MTase activity of ZIKV (in words) ([1]; tested at 50 μM): inhibited; also recorded: modest inhibition
- inhibition at 50 µM [2]: 10.1%
- Effect on 2′-O-MTase activity of DENV3 (in words) ([2]; tested at 50 μM): modest inhibition
- EC50 ([3]; VeroE6 cells): 27.2 ± 0.2 µM
- EC50 ([3]; Zika virus, Vero C1008, VeroE6 cells): 27 µM
- IC50 ([3]; Zika virus, Vero C1008, Vero E6 cells, read-out: IC50 (antiviral activity in cell culture)): 27.2 ± 0.2 µM
- Antiviral activity against ZIKV (in words) ([3]; cell-based assay): modest antiviral activity
- CC50 [4]: 66.2 ± 3.9 µM
- CC50 relative to EC50 (fold higher) [5]: ~3 fold
- EC50 ([6]; Zika virus, 168 h, SH-SY5Y cells, ZIKV MR766, MOI 0.01, 7-day incubation): > 100 µM
- Antiviral activity against ZIKV in SH-SY5Y cells (in words) ([6]; neuroblastoma SH-SY5Y cells): not confirmed
- CC50 at 7 days [7]: 61 µM

SMILES: Nc1ncnc2c1ncn2[C@@H]1O[C@H](C[C@@H](N)CC[C@H](N)C(=O)O)[C@@H](O)[C@H]1O [Sinefungin]
- inhibition at 50 µM [1]: 97.9%
- inhibition at 50 µM [2]: 96.8%
- ZIKV MTase inhibition (in words) [8]: potent
- DENV MTase inhibition (in words) [9]: potent
- Antiviral activity in cell culture (in words) [10]: lack of antiviral activity
